8 compounds from ChEMBL document CHEMBL1136417, “Siphonols A-E: novel nitric oxide inhibitors from Orthosiphon stamineus of Indonesia” (Bioorg Med Chem Lett, 2003) can be followed below.

The test system of this test is J774. Nature of the test: Inhibitory activity against nitric oxide production in lipopolysaccharide (LPS)-activated macrophage -like J774.1 cell. Format: functional, cell-based, Mus musculus.

As to `CC(=O)O[C@H]1[C@@H](OC(C)=O)C(C)(C)C2C[C@@H](OC(C)=O)[C@@]3(O)C(=O)[C@@](C)(C=O)C[C@@H](OC(=O)c4ccccc4)C3[C@@]2(CO)[C@H]1OC(=O)c1ccccc1` (stereo partly drawn), under “Mus musculus, J774”, the half-inhibitory concentration (IC50) (usually the concentration that gives 50% inhibition) stood at 23 µM.
The same measure, in the same setting: under `C=C[C@@]1(C)C[C@@H](OC(=O)c2ccccc2)C2[C@]3(COC(C)=O)C(C[C@@H](O)[C@@]2(O)C1=O)C(C)(C)[C@H](OC(C)=O)[C@H](OC(C)=O)[C@@H]3OC(=O)c1ccccc1` (stereo partly drawn) stands 46.5 µM; under `C=C[C@@]1(C)C[C@@H](OC(=O)c2ccccc2)C2[C@]3(CO)C(C[C@@H](O)[C@@]2(O)C1=O)C(C)(C)[C@H](OC(C)=O)[C@H](OC(C)=O)[C@@H]3OC(=O)c1ccccc1` (stereo partly drawn), 17.3 µM.
On the same count and under the same terms, under `C=C[C@@]1(C)C[C@@H](OC(=O)c2ccccc2)C2[C@]3(CO)C(C[C@@H](OC(C)=O)[C@@]2(O)C1=O)C(C)(C)[C@H](OC(C)=O)[C@H](O)[C@@H]3OC(=O)c1ccccc1` (stereo partly drawn) stands 22.9 µM; under `C=C[C@@]1(C)C[C@@H](OC(=O)c2ccccc2)C2[C@]3(CO)C(C[C@@H](OC(C)=O)[C@@]2(O)C1=O)C(C)(C)[C@H](OC(C)=O)[C@H](OC(C)=O)[C@@H]3OC(=O)c1ccccc1` (stereo partly drawn), 10.8 µM.
`C[C@@H]1C[C@H]2[C@@H]3CCC4=CC(=O)C=C[C@]4(C)[C@@]3(F)[C@@H](O)C[C@]2(C)[C@@]1(O)C(=O)CO` [DEXAMETHASONE]: inhibition (Mus musculus, J774) was half-maximal at 170 µM (IC50).
Regarding `CNC(=N)NCCC[C@H](N)C(=O)O` [TILARGININE], under “Mus musculus, J774”, half-maximal inhibition (IC50) required 26 µM.
Take POLYMYXIN B: for the setting “j774”, the IC50 was 27.8 µM.
